As a reminder, the MIC is the lowest concentration found to suppress growth.

Data on four compounds can be found in US4376076A, “Bis-esters of 1,1-alkanediols with 6-beta-hydroxymethylpenicillanic acid 1,1-dioxide” (priority 1982, dated 1983).

Experiment [1] deals with Pseudomonas aeruginosa 52A104 cell free beta-lactamase. Kind of experiment: Inhibition of cell-free beta-lactamase (microiodometric), P. aeruginosa 52A104. The class given is biochemical. To be noted: for beta-lactamase inhibiting activity, in words: Pseudomonas aeruginosa; for % Inhibition Beta-Lactam Hydrolysis: Penicillin G 33 μM, pH 6.5, 37° C. On the procedure: The compounds of the present invention are thus evaluated in vitro by the ability of the compound (13) to inhibit the hydrolysis of certain beta-lactam antibiotics by beta-lactamase enzymes. The hydrolysis of ampicillin and penicillin G was determined by the microiodometric method of Novick [Biochem, J. 83, 236 (1962)]. Conditions for this assay are 0.5 M potassium phosphate, pH 6.5 and 37° C. Reactions were initiated by the addition of the cell-free beta-lactamase, except in the case of preincubation experiments in which the inhibitor and enzyme were incubated together in the assay mixture for 10 minutes before initiation of the reaction by addition of substrate. […]
(§1) Cell-free extracts were prepared by sonic treatment (using three 30-s bursts at 4° C. except for S. aureus, which was broken with a French press) of cultures grown in brain heart infusion on a rotary shaker incubator. For the S. aureus, P. aeruginose, and E. cloacae strains, de novo synthesis of beta-lactamase was induced by growing a log-phase culture in the presence of a sublethal concentration of penicillin G at 100, 1,000, and 300 microg./ml, respectively, for 2.5 hr.

In experiment [2] the test system is Enterobacter cloacae 67B009 cell free beta-lactamase. Kind of experiment: Inhibition of cell-free beta-lactamase (microiodometric), E. cloacae 67B009. Type of experiment: biochemical. As to conditions: for beta-lactamase inhibiting activity, in words: Enterobacter cloacae; for % Inhibition Beta-Lactam Hydrolysis: Penicillin G 33 μM. The protocol:
The compounds of the present invention are thus evaluated in vitro by the ability of the compound (13) to inhibit the hydrolysis of certain beta-lactam antibiotics by beta-lactamase enzymes. The hydrolysis of ampicillin and penicillin G was determined by the microiodometric method of Novick [Biochem, J. 83, 236 (1962)]. Conditions for this assay are 0.5 M potassium phosphate, pH 6.5 and 37° C. Reactions were initiated by the addition of the cell-free beta-lactamase, except in the case of preincubation experiments in which the inhibitor and enzyme were incubated together in the assay mixture for 10 minutes before initiation of the reaction by addition of substrate. With the cell-free extracts of Staphylococcus aureus, Escherichia coli, Klebsiella pneumoniae and Pseudomonas aeruginosa, the substrate was ampicillin at 33 micro M (13 microg./ml).
as §1

Experiment [3] has as its system Enterobacter cloacae 67B009. Kind of experiment: MIC on BHI agar, alone and 1:1 with ampicillin. The class given is cell-based. To be noted: for MIC: inhibitor alone, 18 hrs. at 37° C. The protocol:
(§2) The procedure which is followed is the one recommended by the International Collaborative Study on Antibiotic Sensitivity Testing [Ericcson and Sherris, Acta. Pathologica et Microbiologia Scandinav, Supp. 217, Sections A and B: 64-68 (1971)], and employs brain heart infusion (BHI) agar and the inocula replicating device. Overnight growth tubes are diluted 100 fold for use as the standard inoculum (20,000-10,000 cells in approximately 0.002 ml are placed on the agar surface; 20 ml of BHI agar/dish). Twelve 2 fold dilutions of the test compound are employed, with initial concentration of the test drug being 200 mcg/ml. Single colonies are disregarded when reading tubes after 18 hrs. at 37° C. […] These MIC's are then compared with the MIC values obtained with a combination of the given antibiotic and the compound of the formula (6). […] The MIC values of combinations are measured using the method described by Barry and Sabath in "Manual of Clinical Microbiology", edited by Lenette, Spaulding and Truant, 2nd Edition, 1974, American Society for Microbiology.
(§3) For purposes of comparison data on the earlier beta-lactamase inhibitor, penicillanic acid 1,1-dioxide, are included.

Experiment [4] has as its system Escherichia coli-R 51A129. As to the kind of experiment: MIC on BHI agar, alone and 1:1 with ampicillin. The class given is cell-based. As to conditions: for MIC: inhibitor alone, 18 hrs. at 37° C. The protocol:
as §2, §3

The test system of experiment [5] is Proteus morgani 57G001. Kind of experiment: MIC on BHI agar, alone and 1:1 with ampicillin. The class given is cell-based. As to conditions: inhibitor alone; 18 hrs. at 37° C. The protocol: as §2, §3
Experiment [6] relates to Pseudomonas aeruginosa 52A104. Kind of experiment: MIC on BHI agar, alone and 1:1 with ampicillin. Type of experiment: cell-based. To be noted: for MIC: inhibitor alone, 18 hrs. at 37° C. On the procedure: as §2, §3
The subject of experiment [7] is Escherichia coli 51A266. Kind of experiment: MIC on BHI agar, alone and 1:1 with ampicillin. The class given is cell-based. As to conditions: for Response: 1:1 with ampicillin (E); for MIC: inhibitor alone, 18 hrs. at 37° C. The protocol:
as §2, §3

Experiment [8] concerns Klebsiella pneumoniae 53A079. Kind of experiment: MIC on BHI agar, alone and 1:1 with ampicillin. Type of experiment: cell-based. As to conditions: for MIC: inhibitor alone, 18 hrs. at 37° C. The protocol: as §2, §3
Experiment [9] relates to Serratia marcescens 63A095. As to the kind of experiment: MIC on BHI agar, alone and 1:1 with ampicillin. To be noted: inhibitor alone; 18 hrs. at 37° C. Type of experiment: cell-based. The protocol: as §2, §3
Experiment [10] relates to Staphylococcus aureus 01A005. Kind of experiment: MIC on BHI agar, alone and 1:1 with ampicillin. The class given is cell-based. To be noted: inhibitor alone; 18 hrs. at 37° C. On the procedure:
as §2, §3

The subject of experiment [11] is Citrobacter diversus 70C031. Kind of experiment: MIC on BHI agar, alone and 1:1 with ampicillin. The class given is cell-based. To be noted: inhibitor alone; 18 hrs. at 37° C. The protocol:
as §2, §3

Experiment [12] deals with Staphylococcus aureus 01A400. Kind of experiment: MIC on BHI agar, alone and 1:1 with ampicillin. The class given is cell-based. As to conditions: inhibitor alone; 18 hrs. at 37° C. The protocol:
as §2, §3

For experiment [13], the system named is a variety of microorganisms. As to the kind of experiment: Enhancement of ampicillin effectiveness (MIC of combinations), overall statement. Type of experiment: cell-based. As to conditions: 1:1 with ampicillin; summary of Table II. The protocol: The procedure which is followed is the one recommended by the International Collaborative Study on Antibiotic Sensitivity Testing [Ericcson and Sherris, Acta. Pathologica et Microbiologia Scandinav, Supp. 217, Sections A and B: 64-68 (1971)], and employs brain heart infusion (BHI) agar and the inocula replicating device. Overnight growth tubes are diluted 100 fold for use as the standard inoculum (20,000-10,000 cells in approximately 0.002 ml are placed on the agar surface; 20 ml of BHI agar/dish). Twelve 2 fold dilutions of the test compound are employed, with initial concentration of the test drug being 200 mcg/ml. Single colonies are disregarded when reading tubes after 18 hrs. at 37° C. The susceptibility (MIC) of the test organism is accepted as the lowest concentration of compound capable of producing complete inhibition of growth as judged by the naked eye. The manner in which the said compounds of the formula (B) increase the effectiveness of a beta-lactam antibiotic can be appreciated by reference to experiments in which the MIC of a given antibiotic alone, and a compound of the formula (6) alone, are measured. […] The MIC values of combinations are measured using the method described by Barry and Sabath in "Manual of Clinical Microbiology", edited by Lenette, Spaulding and Truant, 2nd Edition, 1974, American Society for Microbiology. […]

The mark [14] stands for this setting: inhibitor 1.0 μM, pH 6.5, 37° C.
Setting [15] is: inhibitor 16.5 μM, pH 6.5, 37° C.
Setting [16] is: inhibitor 66 μM, pH 6.5, 37° C.

Take `CC1(C)[C@H](C(=O)O)N2C(=O)[C@@H](CO)[C@H]2S1(=O)=O` [A, 6-beta-(Hydroxymethyl)penicillanic acid 1,1-dioxide]: the “beta-lactamase inhibiting activity, in words” value in experiment [1] and in [2] was “Especially noteworthy” each time. Moreover, the “% Inhibition Beta-Lactam Hydrolysis” value in [1] (inhibitor 1.0 μM) came out at 21.7%; in [1] (inhibitor 16.5 μM) it was 93.4%; in [1] (inhibitor 66 μM) it was 98.8%; in experiment [2] (setting [14]) it was 11.4%; in experiment [2] (setting [15]), 52.0%; in experiment [2] (setting [16]), 77.0%.
Consider `CC1(C)[C@H](C(=O)O)N2C(=O)C[C@H]2S1(=O)=O` [B, Penicillanic acid 1,1-dioxide], for which the figures for the Response entry in experiment [3] (1:1 with ampicillin (E)), in experiment [7] and in experiment [8] (1:1 with ampicillin (E)) were “S”, “N” and “S”, respectively. Further, the MIC in experiment [3] was 100 µg/mL; in experiment [4], 200 µg/mL; in experiment [5], 200 µg/mL; in experiment [6], greater than 200 µg/mL; in [7], 25 µg/mL; in [8], 50 µg/mL. Moreover, the MIC came to 200 µg/mL in experiment [9], 100 µg/mL in experiment [10], 200 µg/mL in experiment [11] and 200 µg/mL in experiment [12]. In addition, the “beta-lactamase inhibiting activity, in words” value in [1] and in [2] was “at best a low order of activity” throughout. Moreover, the “% Inhibition Beta-Lactam Hydrolysis” value in experiment [1] (inhibitor 66 μM) amounted to 0%; in [2] (setting [14]) it was 0%; in experiment [2] (setting [15]), 0%; in experiment [2] (setting [16]) it was 0%; in experiment [2] (inhibitor 66 μM, preincubation of inhibitor and enzyme 10 minutes), 26%.
`CC1(C)[C@H](C(=O)O)N2C(=O)[C@@H](CO)[C@H]2S1(=O)=O` [C, 6-beta-(Hydroxymethyl)penicillanic acid 1,1-Dioxides]: the MIC in [3] is 100 µg/mL; in experiment [4], 50 µg/mL; in experiment [5] it was greater than 200 µg/mL; in experiment [6] it was greater than 200 µg/mL; in [7], 50 µg/mL; in experiment [8], 50 µg/mL. For the same compound, the MIC in experiment [9] is 200 µg/mL; in experiment [10], greater than 200 µg/mL; in experiment [11], 200 µg/mL; in experiment [12] it was greater than 200 µg/mL. The Response entry in [4] (1:1 with ampicillin (E)) is listed as “S”; in [6] (1:1 with ampicillin (E)) it was “S”; in experiment [7], “N”.
Consider `CC1(C)[C@H](C(=O)O)N2C(=O)[C@@H](CO)[C@H]2S1(=O)=O` [compound (6), 6-beta-(hydroxymethyl)penicillanic acid 1,1-dioxide], for which the “enhanced spectrum and potency with ampicillin, in words” value in [13] is recorded as “synergy or pronounced synergy”.
